Results published in the NIST ThermoML archive (doi:10.1021/je800334m).

Legend:
[1] = Liquid
[2] = excess molar enthalpy (molar enthalpy of mixing); xn = mol fraction of the nth substance listed; conditions: Liquid

CN(C)CCO [2-(N,N-dimethylamino)ethanol]
molar volume [m3/mol], [1]
Conditions	298.15 K	313.15 K	328.15 K
100 kPa	0.0001009	0.0001024	0.0001039
10000 kPa	0.0001009	0.0001024	0.0001039

CN(C)CCO [2-(N,N-dimethylamino)ethanol] + CC(C)O
excess molar enthalpy [kcal/mol], [2]
Conditions	298.2 K	313.2 K	328.2 K
100 kPa, x1 = 0.0496	–	-0.00404	–
100 kPa, x1 = 0.0499	–	–	-0.00858
100 kPa, x1 = 0.1008	0.00387	-0.00413	–
100 kPa, x1 = 0.1014	–	–	-0.0122
100 kPa, x1 = 0.1502	0.00667	-0.00304	–
100 kPa, x1 = 0.1511	–	–	-0.0135
100 kPa, x1 = 0.1994	0.00889	-0.00167	–
100 kPa, x1 = 0.2005	–	–	-0.0137
100 kPa, x1 = 0.2501	0.0103	-0.000645	–
100 kPa, x1 = 0.2513	–	–	-0.0135
100 kPa, x1 = 0.3005	0.0112	0.000215	–
100 kPa, x1 = 0.3018	–	–	-0.0132
100 kPa, x1 = 0.3504	0.0115	0.000693	–
100 kPa, x1 = 0.3519	–	–	-0.013
100 kPa, x1 = 0.3999	0.0114	0.000813	–
100 kPa, x1 = 0.4015	–	–	-0.0127
100 kPa, x1 = 0.4507	0.0109	0.000717	–
100 kPa, x1 = 0.4524	–	–	-0.0124
100 kPa, x1 = 0.501	0.01	0.000478	–
100 kPa, x1 = 0.5026	–	–	-0.012
100 kPa, x1 = 0.5505	0.00891	-0.00012	–
100 kPa, x1 = 0.5522	–	–	-0.0115
100 kPa, x1 = 0.5993	0.00784	-0.000287	–
100 kPa, x1 = 0.6009	–	–	-0.0109
100 kPa, x1 = 0.6508	–	–	-0.0103
10000 kPa, x1 = 0.0499	–	-0.0044	-0.00937
10000 kPa, x1 = 0.0998	0.00325	-0.00464	-0.0129
10000 kPa, x1 = 0.1494	–	-0.00457	–
10000 kPa, x1 = 0.2005	0.00825	-0.00237	-0.0145
10000 kPa, x1 = 0.2496	0.00958	-0.00134	-0.0143
10000 kPa, x1 = 0.3	0.0103	-0.000598	-0.0139
10000 kPa, x1 = 0.35	0.0107	-0.000167	-0.0135
10000 kPa, x1 = 0.3995	0.0107	-2.39e-05	-0.0131
10000 kPa, x1 = 0.4504	0.0103	-9.56e-05	-0.0127
10000 kPa, x1 = 0.5006	0.0097	-0.000311	-0.0123
10000 kPa, x1 = 0.5501	0.00889	-0.000621	-0.0118
10000 kPa, x1 = 0.6009	0.00789	–	-0.0111
10000 kPa, x1 = 0.6508	–	–	-0.0109

CN(C)CCO [2-(N,N-dimethylamino)ethanol] + CCCO
excess molar enthalpy [kcal/mol], [2], Flow calorimetry
Conditions	298.2 K	313.2 K	328.2 K
100 kPa, x1 = 0.2007	-0.0457	–	-0.0632
100 kPa, x1 = 0.2509	-0.0511	–	-0.0696
100 kPa, x1 = 0.2984	–	-0.06	–
100 kPa, x1 = 0.3008	-0.0552	–	-0.0748
100 kPa, x1 = 0.3505	-0.0583	-0.0638	-0.0781
100 kPa, x1 = 0.3999	-0.0599	–	-0.0796
100 kPa, x1 = 0.4012	–	-0.066	–
100 kPa, x1 = 0.4501	–	-0.0668	–
100 kPa, x1 = 0.4507	-0.0602	–	-0.0797
100 kPa, x1 = 0.499	-0.0606	–	-0.0781
100 kPa, x1 = 0.5004	–	-0.0662	–
100 kPa, x1 = 0.5488	–	-0.0642	–
100 kPa, x1 = 0.5509	-0.0586	–	-0.0749
100 kPa, x1 = 0.5985	–	-0.0613	–
100 kPa, x1 = 0.6	-0.056	–	-0.0707
100 kPa, x1 = 0.6497	–	-0.0571	–
100 kPa, x1 = 0.6505	-0.0524	–	-0.065
100 kPa, x1 = 0.6986	–	-0.0518	–
100 kPa, x1 = 0.7001	–	–	-0.0585
100 kPa, x1 = 0.7488	–	-0.0455	–
100 kPa, x1 = 0.8005	–	-0.0377	–
100 kPa, x1 = 0.8495	–	-0.0297	–
10000 kPa, x1 = 0.2001	-0.0457	–	-0.063
10000 kPa, x1 = 0.2492	–	-0.0553	–
10000 kPa, x1 = 0.2503	-0.0511	–	-0.0701
10000 kPa, x1 = 0.2998	–	-0.0611	–
10000 kPa, x1 = 0.3004	-0.0553	–	-0.0757
10000 kPa, x1 = 0.3489	–	-0.0646	–
10000 kPa, x1 = 0.3502	-0.0582	–	-0.079
10000 kPa, x1 = 0.3995	-0.0602	-0.0667	-0.0808
10000 kPa, x1 = 0.4484	–	-0.0674	–
10000 kPa, x1 = 0.4504	-0.0609	–	-0.0811
10000 kPa, x1 = 0.4986	–	-0.067	–
10000 kPa, x1 = 0.5007	-0.0605	–	-0.0793
10000 kPa, x1 = 0.5504	-0.0587	-0.065	-0.0764
10000 kPa, x1 = 0.5994	-0.056	–	-0.0722
10000 kPa, x1 = 0.6001	–	-0.0618	–
10000 kPa, x1 = 0.6497	-0.0527	–	-0.0667
10000 kPa, x1 = 0.6512	–	-0.0573	–
10000 kPa, x1 = 0.7	–	-0.0518	–
10000 kPa, x1 = 0.7501	–	-0.0453	–
10000 kPa, x1 = 0.8015	–	-0.0375	–
10000 kPa, x1 = 0.8503	–	-0.0293	–

CCO [ethanol]
molar volume [m3/mol], [1]
Conditions	298.15 K	313.15 K	328.15 K
100 kPa	5.867e-05	5.964e-05	6.067e-05
10000 kPa	5.803e-05	5.899e-05	6.001e-05

CO [methanol]
molar volume [m3/mol], [1]
Conditions	298.15 K	313.15 K	328.15 K
100 kPa	4.073e-05	4.146e-05	4.221e-05
10000 kPa	4.024e-05	4.096e-05	4.17e-05

CCCO [propan-1-ol]
molar volume [m3/mol], [1]
Conditions	298.15 K	313.15 K	328.15 K
100 kPa	7.514e-05	7.632e-05	7.759e-05
10000 kPa	7.452e-05	7.569e-05	7.694e-05

CC(C)O [propan-2-ol]
molar volume [m3/mol], [1]
Conditions	298.15 K	313.15 K	328.15 K
100 kPa	7.694e-05	7.822e-05	7.962e-05
10000 kPa	7.594e-05	7.72e-05	7.857e-05
